The results in this text go back to the Deep4Chem optical property database.

The nature of this data set: solvent given as SMILES.
[1] abbreviates: in O=P(c1ccccc1)(c1ccccc1)c1ccccc1Oc1ccccc1P(=O)(c1ccccc1)c1ccccc1.

On to `CCCCCCc1ccc2c3c(ccc2c1)O[B-](F)(F)[N+](c1ccc([N+]2=Cc4c(ccc5cc(CCCCCC)ccc45)O[B-]2(F)F)cc1)=C3`, for which the emission maximum runs as follows: (in C1CCOC1) 505 nm; (in CC#N) 502 nm; (in Cc1ccccc1) 508 nm; (in ClCCl) 507 nm.

`CCc1c(C(=O)OC)c(C(=O)OC)c2ccc(-c3ccccc3)nn12` came in with an emission maximum (in CCCCCC) of 471 nm.

As to `Fc1c(-n2c3ccccc3c3ccccc32)c(F)c(-n2c3ccccc3c3ccccc32)c(-c2nnc(-c3ccccc3)o2)c1-n1c2ccccc2c2ccccc21`, the emission maximum (in Cc1ccccc1) was determined as 490 nm.

On to `CC1=N/C(=C\c2ccc(C#N)c(N(C)C)c2)C(=O)N1C`, for which the emission maximum reads like this: (in C1CCOC1) 568 nm; (in CC#N) 592 nm; (in CCCCCC) 496 nm.

In the case of `Cc1nc2ccc(/C=C/c3ccc(N(C)C)cc3)cc2nc1-c1ccccc1`, the emission maximum is reported as 526 nm (in C1COCCO1), 641 nm (in CC#N) and 590 nm (in ClCCl).

`Cc1ccc(-c2nc(-c3ccc(C#N)cc3)[nH]c2-c2ccc(C)cc2)cc1` displayed an emission maximum (in CO) of 447 nm.

`Cc1cccc2c1nc1c(=O)n(C)c(=O)nc-1n2C`: the emission maximum (in CC#N) was 493 nm.

For the molecule `c1ccc2c3c(ccc2c1)C1(c2cc(-c4ccc5ccc6cccc7ccc4c5c67)ccc2-c2ccc(-c4ccc5ccc6cccc7ccc4c5c67)cc21)c1ccc2ccccc2c1O3`, the emission maximum (in ClC(Cl)Cl) was 422 nm.

As for `Cc1ccc(-c2cc(-c3ccccc3)c(C#N)c(=S)[nH]2)cc1`, the emission maximum is, setting by setting: (in C1CCCCC1) 504 nm; (in C1COCCO1) 506 nm; (in CC#N) 488 nm; (in CCCCO) 503 nm; (in CCCO) 490 nm; (in CCO) 462 nm. In addition, the emission maximum is on record as 522 nm (in CCOC(C)=O), 524 nm (in CCOCC), 502 nm (in CN(C)C=O) and 508 nm (in ClC(Cl)(Cl)Cl).

`O=c1c2cc(Br)ccc2nc2n1[B-](F)(F)[n+]1ccccc1-2` displayed an emission maximum (in CC#N) of 440 nm and an emission maximum (in ClCCl) of 448 nm.

Under “in ClCCl”, `COc1ccc(/C=C/c2ncc(-c3ccccc3)o2)cc1OC` registered an emission maximum of 420 nm.

Where the note is “in ClC(Cl)Cl”, `CCCCn1c2ccc(-c3ccc(OC)cc3)cc2c2ccc3c4cc(-c5ccc(OC)cc5)ccc4n(CCCC)c3c21` gave an emission maximum of 415 nm.

Regarding `Cc1ccc(-c2cnc3nn4ccccc4c3c2)cc1`, where the note is “in C1CCOC1”, the emission maximum was 418 nm.

Regarding `Cc1ccc(-n2c(-c3ccccc3[N-]S(=O)(=O)c3ccc(C)cc3)[nH+]c3c4ccccc4c4ccccc4c32)cc1`, for the setting “in Cc1ccccc1”, the emission maximum was 506 nm.

Regarding `CCCCCCCCCCCCC(CCCCCCCCCC)Cn1c2cc(C=C(C#N)C#N)c3cccc4c5cccc6c(C=C(C#N)C#N)cc1c(c65)c2c34` (configuration not stated), the emission maximum runs as follows: (in C1CCCCC1) 603 nm; (in CC#N) 641 nm; (in Cc1ccccc1) 623 nm; (in ClCCl) 635 nm.

With `CCOC(=O)CN1C(=O)C2=C(c3ccccc3)N(CC(=O)OCC)C(=O)C2=C1c1ccccc1`, the emission maximum is, setting by setting: (in CC#N) 512 nm; (in CS(C)=O) 519 nm; (in Cc1ccccc1) 520 nm.

The molecule `Nc1cccc2cc3ccccc3cc12` registered an emission maximum (in C1CCCCC1) of 487.09 nm.

In turn, `CC(C)(C)NC(=O)c1ccc(-c2cc3ccccc3s2)c2ccc3c4ccccc4c4ccccc4c3c12` gave an emission maximum (in ClCCl) of 441 nm.

Consider `COCCC1=Cc2nc1ccc1[nH]c(cc1CCOC)c1nc(ccc3[nH]c2cc3CCOC)C(CCOC)=C1`, for which the emission maximum (in Cc1ccccc1) is reported as 642 nm.

Take `N#Cc1cc(N2c3ccccc3Sc3ccccc32)c(N2c3ccccc3Sc3ccccc32)cc1C#N`: the emission maximum (in c1ccc2c(c1)c1ccccc1n2-c1ccc(-c2ccc(-n3c4ccccc4c4ccccc43)cc2)cc1) was determined as 605 nm.

In the case of `F[B-]1(F)n2c(c(-c3ccccc3)c(-c3ccccc3)c2-c2ccccc2)C=C2C(c3ccccc3)=C(c3ccccc3)C(c3ccccc3)=[N+]21`, under “in C1CCOC1”, the emission maximum worked out at 608 nm.

For `COc1ccc(-c2csc(/C(C#N)=C/c3ccc(Cl)cc3)n2)cc1`, under “in CC#N”, the emission maximum is listed as 543 nm.

For the molecule `CC1(C)c2cccc(-c3nc(-c4ccccc4)nc(-c4ccccc4)n3)c2Oc2c(-n3c4ccccc4c4ccccc43)cccc21`, the emission maximum is, setting by setting: (in C1CCCCC1) 395 nm; (in CC(C)=O) 469 nm; (in Cc1ccccc1) 419 nm; (in ClC(Cl)Cl) 454 nm.

The molecule `CC(C)(C)NC(=O)c1ccc(-c2ccc(N3c4ccccc4Oc4ccccc43)cc2)c2ccc3c4ccc(F)cc4c4cc(F)ccc4c3c12` registered an emission maximum (in ClCCl) of 573 nm.

Consider `CC1=C(C)c2cccc3c2c(cc2nc4ccccc4nc23)O1`, for which the emission maximum (in ClCCl) came out at 563 nm.

Turning to `N#Cc1c(N2c3ccccc3C(c3ccccc3)(c3ccccc3)c3ccccc32)cccc1N1c2ccccc2C(c2ccccc2)(c2ccccc2)c2ccccc21`, the emission maximum is, setting by setting: (in Cc1ccccc1) 454 nm; under setting [1], 466 nm.

Under “in ClCCl”, `CC1=C(c2ccc(N(c3ccccc3)c3ccccc3)cc2)C(C)=[N+]2C1=C(c1c(-c3ccccn3)nc3ccccn13)c1c(C)c(-c3ccc(N(c4ccccc4)c4ccccc4)cc3)c(C)n1[B-]2(F)F` showed an emission maximum of 709 nm.

`CCCCC(CC)CN1C(=O)c2cc(Oc3ccc(C(C)(C)C)cc3)c3c4c(Oc5ccc(OC)cc5)cc5c6c(cc(Oc7ccc(OC)cc7)c(c7c(Oc8ccc(C(C)(C)C)cc8)cc(c2c37)C1=O)c64)C(=O)N(c1c(C(C)C)cccc1C(C)C)C5=O` (configuration not stated) displayed an emission maximum (in Cc1ccccc1) of 608 nm.

With `O=CN1N=C(c2ccc(Br)cc2)C[C@@H]1c1ccccc1`, the emission maximum is 348 nm (in C1CCCCC1); 352 nm (in C1COCCO1); 351 nm (in CC#N); 345 nm (in CCO); 350 nm (in CCOC(C)=O); 350 nm (in CO). Besides, the emission maximum runs as follows: (in CS(C)=O) 356 nm; (in Cc1ccccc1) 349 nm; (in ClC(Cl)(Cl)Cl) 351 nm.

`N#C/C(=C\c1ccc([N+](=O)[O-])cc1)c1nc(-c2ccccc2)cs1` returned an emission maximum (in CC#N) of 552 nm.

In turn, `CC(C)(C)c1ccc2c(c1)c1cc(C(C)(C)C)cc3c1n2-c1cc(-c2cccc(F)c2)cc2c1B3c1cc(C(C)(C)C)cc3c4cc(C(C)(C)C)ccc4n-2c13` registered an emission maximum (in Cc1ccccc1) of 493.65 nm.

Under “in CO”, `CCN(CC)c1ccc(C=Cc2nc3nc4ccccc4nc3s2)cc1` returned an emission maximum of 630 nm.

As to `N#Cc1cc(C#N)c(-n2c3ccccc3c3c(-c4cccc5c4c4ccccc4n5-c4cc(-n5c6ccccc6c6ccccc65)c(C#N)cc4C#N)cccc32)cc1-n1c2ccccc2c2ccccc21`, the emission maximum under setting [1] came out at 444 nm.

`CC1=N/C(=C\c2ccc(N(C)C)cc2)C(=O)N1C`: the emission maximum is, setting by setting: (in C1CCCCC1) 437 nm; (in C1CCOC1) 452 nm; (in CC#N) 483 nm; (in CO) 492 nm; (in CS(C)=O) 490 nm; (in ClCCl) 482 nm. For the setting “in O”, this molecule showed an emission maximum of 520 nm.

Consider `C(=C\c1ccc(/C=C/c2ccc(N(c3ccccc3)c3ccccc3)cc2)cc1)/c1ccc(/C=C/c2ccc(N(c3ccccc3)c3ccccc3)cc2)cc1`, for which the emission maximum (in ClCCl) is on record as 510 nm.

For the molecule `Cc1ccc(C2CC(=O)Oc3c2c2nc4ccccc4nc2c2ccccc32)cc1` (configuration not stated), for the setting “in ClC(Cl)Cl”, the emission maximum is 440 nm.

Molecule `CN(C)c1ccc(C2=Cc3cc(Cl)nc[n+]3[B-](F)(F)O2)cc1` showed an emission maximum (in C1CCOC1) of 532 nm; an emission maximum (in CC#N) of 565 nm; an emission maximum (in CCCCCC) of 456 nm; an emission maximum (in Cc1ccccc1) of 494 nm; an emission maximum (in ClC(Cl)Cl) of 512 nm; an emission maximum (in ClCCl) of 529 nm.

The molecule `Cc1ccc(/N=C2/C3=c4[nH]c5ccccc5c4=[N+](c4ccc(C)cc4)[B-](F)(F)N3c3ccccc32)cc1` gave an emission maximum (in ClCCl) of 756 nm.

For the setting “in ClCCl”, `CCN(CC)c1ccc2cc(-c3nc4c5cccc6ccc7cccc(c7c65)c4n3-c3ccc(C(C)(C)C)cc3)c(=O)oc2c1` came in with an emission maximum of 519 nm.

Regarding `CN(C)c1ccc(N2c3sc4ccccc4c3Sc3sc4ccccc4c32)cc1`, the emission maximum (in ClCCl) was found to be 424 nm.

For the molecule `CCCCN1C(=S)c2cccc3cccc(c23)C1=S`, under “in Cc1ccccc1”, the emission maximum turned out to be 506 nm.

As to `Oc1ccc2ccccc2c1-c1nc(-c2ccccc2)c2ccccn12`, the emission maximum amounted to 407 nm (in C1CCCCC1); 435 nm (in CC#N); 433 nm (in CO); 467 nm (in ClCCl); 440 nm (in O).

In the case of `CC1(C)c2ccccc2N(c2cc3c4ccccc4n4c5ccccc5c(c2)c34)c2ccccc21`, the emission maximum was 416.92 nm (in C1CCCCC1), 470.91 nm (in C1CCOC1) and 439 nm (in Cc1ccccc1).

Turning to `C/C(=C\c1ccccc1)c1nc2ccccc2o1`, the emission maximum stood at 370 nm (in C1CCCCC1) and 380 nm (in CO).

`C[Si](C)(C)[Si](C)(C)c1cccc2cc3ccccc3cc12` came in with an emission maximum (in C1CCCCC1) of 410 nm and an emission maximum (in CC#N) of 411 nm.

As for `CCN(CC)c1ccc(C2=C3C(C)=CC(C)=[N+]3[B-](F)(F)n3c(C)cc(C)c32)cc1`, for the setting “in CO”, the emission maximum is 513 nm.

For `CN(C)c1cc(-c2ccc(C#Cc3ccccc3)cc2)cc2ccccc12`, the emission maximum reads like this: (in CC#N) 500.89 nm; (in CCO) 471.6 nm; (in ClCCl) 470 nm.

On to `CCCC1(CCC)c2ccccc2-c2ccc(-c3ccc(OC)cc3)cc21`, for which, for the setting “in C1CCCCC1”, the emission maximum is on record as 345 nm.

Take `COC(=O)c1cc(=O)n(C)c2cc(-c3ccccc3)sc12`: the emission maximum reads like this: (in CC#N) 462 nm; (in ClCCl) 462 nm.

In the case of `S=P1(c2ccccc2)C(c2ccccc2)=Cc2cc3ccccc3cc21` (configuration not stated), the emission maximum (in ClCCl) amounted to 425 nm.

Take `N#Cc1cc(C#N)c(-n2c3ccccc3c3cc(-c4ccc5c(c4)c4ccccc4n5-c4cc(-n5c6ccccc6c6ccccc65)c(C#N)cc4C#N)ccc32)cc1-n1c2ccccc2c2ccccc21`: under setting [1], the emission maximum is reported as 470 nm.
